{"source": "ChEMBL document CHEMBL5465560", "about": "“Selectivity Literature for EUbOPEN Chemogenomic Library” (2024)", "key": {"[1]": {"biological_target": "Tyrosine-protein kinase FRK (Homo sapiens) (UniProt P42685)", "assay": "Selectivity interaction (Kinase panel (Invitrogen)) EUB0000639a FRK", "settings": "at 200 nM"}, "[2]": {"biological_target": "Mitogen-activated protein kinase kinase kinase kinase 5 (Homo sapiens) (UniProt Q9Y4K4)", "assay": "Selectivity interaction (KinomeScan (DiscoverX)) EUB0001550a MAP4K5", "settings": "at 1 µM"}, "Insulin receptor": {"biological_target": "Insulin receptor (Homo sapiens, UniProt P06213)", "sequence (P06213 28-758 limits assumed)": "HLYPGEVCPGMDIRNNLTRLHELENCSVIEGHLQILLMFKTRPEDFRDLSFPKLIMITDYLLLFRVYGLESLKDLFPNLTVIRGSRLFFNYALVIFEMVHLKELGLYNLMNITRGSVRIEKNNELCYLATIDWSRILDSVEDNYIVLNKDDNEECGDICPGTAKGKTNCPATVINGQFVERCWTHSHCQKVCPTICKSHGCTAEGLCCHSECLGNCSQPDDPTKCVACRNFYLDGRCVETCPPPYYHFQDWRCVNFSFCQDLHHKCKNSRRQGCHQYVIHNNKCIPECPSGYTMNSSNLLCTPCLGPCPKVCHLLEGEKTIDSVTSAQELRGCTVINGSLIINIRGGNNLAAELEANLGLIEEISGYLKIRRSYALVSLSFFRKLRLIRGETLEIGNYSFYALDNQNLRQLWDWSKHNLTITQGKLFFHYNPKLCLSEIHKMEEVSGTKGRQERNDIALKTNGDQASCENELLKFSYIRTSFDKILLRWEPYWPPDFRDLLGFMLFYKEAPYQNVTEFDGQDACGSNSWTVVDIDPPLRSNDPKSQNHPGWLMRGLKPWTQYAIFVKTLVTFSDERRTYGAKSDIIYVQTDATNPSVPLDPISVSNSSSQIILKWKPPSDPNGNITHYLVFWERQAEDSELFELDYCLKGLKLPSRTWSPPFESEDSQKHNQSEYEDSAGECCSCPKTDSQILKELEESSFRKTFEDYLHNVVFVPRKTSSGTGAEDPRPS", "sequence (P06213 763-1382 limits assumed)": "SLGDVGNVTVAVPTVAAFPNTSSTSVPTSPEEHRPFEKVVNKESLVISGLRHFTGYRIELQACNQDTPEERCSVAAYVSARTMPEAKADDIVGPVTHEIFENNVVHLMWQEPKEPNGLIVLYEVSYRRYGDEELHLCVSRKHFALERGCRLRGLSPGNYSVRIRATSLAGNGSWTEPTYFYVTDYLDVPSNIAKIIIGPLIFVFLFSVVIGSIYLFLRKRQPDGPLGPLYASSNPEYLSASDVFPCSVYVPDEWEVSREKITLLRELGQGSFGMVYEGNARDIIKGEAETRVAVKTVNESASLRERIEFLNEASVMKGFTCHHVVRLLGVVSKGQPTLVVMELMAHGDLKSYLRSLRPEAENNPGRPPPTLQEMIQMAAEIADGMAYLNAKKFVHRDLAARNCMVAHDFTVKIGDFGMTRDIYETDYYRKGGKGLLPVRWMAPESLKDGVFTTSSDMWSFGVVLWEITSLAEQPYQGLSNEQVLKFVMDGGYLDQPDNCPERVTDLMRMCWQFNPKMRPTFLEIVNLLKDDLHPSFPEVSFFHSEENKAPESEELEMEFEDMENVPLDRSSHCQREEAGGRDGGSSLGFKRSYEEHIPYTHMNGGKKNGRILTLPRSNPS", "assay": "Selectivity interaction (Kinase panel (33PanQinase(R) Activity Assay)) EUB0000877a INSR"}, "[3]": {"biological_target": "Phosphatidylinositol 4,5-bisphosphate 3-kinase catalytic subunit alpha isoform (Homo sapiens) (UniProt P42336)", "assay": "Selectivity interaction (Kinase panel (literature)) EUB0001199aCl PIK3CA", "settings": "at 1 µM"}, "[4]": {"biological_target": "T1, MAP/microtubule affinity-regulating kinase 4 (Homo sapiens) (UniProt Q96L34)", "T1 sequence (whole entry)": "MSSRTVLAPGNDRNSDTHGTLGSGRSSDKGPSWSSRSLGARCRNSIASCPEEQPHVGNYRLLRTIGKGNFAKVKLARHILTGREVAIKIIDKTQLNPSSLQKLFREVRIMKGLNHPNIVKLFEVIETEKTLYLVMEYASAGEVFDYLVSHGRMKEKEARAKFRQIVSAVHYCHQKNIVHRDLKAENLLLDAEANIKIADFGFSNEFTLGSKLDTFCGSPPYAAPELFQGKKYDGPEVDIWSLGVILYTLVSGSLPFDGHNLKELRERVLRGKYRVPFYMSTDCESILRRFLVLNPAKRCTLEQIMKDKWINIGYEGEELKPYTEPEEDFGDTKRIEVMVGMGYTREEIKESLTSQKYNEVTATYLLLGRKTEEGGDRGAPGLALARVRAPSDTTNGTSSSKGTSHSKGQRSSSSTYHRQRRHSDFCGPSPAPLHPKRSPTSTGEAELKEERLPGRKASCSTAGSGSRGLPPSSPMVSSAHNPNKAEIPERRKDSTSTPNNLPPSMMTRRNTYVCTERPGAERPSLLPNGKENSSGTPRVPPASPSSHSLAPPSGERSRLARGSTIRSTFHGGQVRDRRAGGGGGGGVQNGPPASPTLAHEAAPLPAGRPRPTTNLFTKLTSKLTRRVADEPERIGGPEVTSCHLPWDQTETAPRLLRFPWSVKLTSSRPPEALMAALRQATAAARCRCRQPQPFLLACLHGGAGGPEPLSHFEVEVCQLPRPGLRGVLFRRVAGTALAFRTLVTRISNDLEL", "assay": "Selectivity interaction (KinomeScan (DiscoverX)) EUB0000595a MARK4", "settings": "at 10 µM"}, "[5]": {"biological_target": "Bromodomain testis-specific protein (Homo sapiens) (UniProt Q58F21)", "assay": "Selectivity interaction (Human bromodomain panel (DSF assay)) EUB0000233b BRDT"}, "[6]": {"biological_target": "Protein kinase C beta type (Homo sapiens, UniProt P05771)", "sequence (P05771 2-671 limits assumed)": "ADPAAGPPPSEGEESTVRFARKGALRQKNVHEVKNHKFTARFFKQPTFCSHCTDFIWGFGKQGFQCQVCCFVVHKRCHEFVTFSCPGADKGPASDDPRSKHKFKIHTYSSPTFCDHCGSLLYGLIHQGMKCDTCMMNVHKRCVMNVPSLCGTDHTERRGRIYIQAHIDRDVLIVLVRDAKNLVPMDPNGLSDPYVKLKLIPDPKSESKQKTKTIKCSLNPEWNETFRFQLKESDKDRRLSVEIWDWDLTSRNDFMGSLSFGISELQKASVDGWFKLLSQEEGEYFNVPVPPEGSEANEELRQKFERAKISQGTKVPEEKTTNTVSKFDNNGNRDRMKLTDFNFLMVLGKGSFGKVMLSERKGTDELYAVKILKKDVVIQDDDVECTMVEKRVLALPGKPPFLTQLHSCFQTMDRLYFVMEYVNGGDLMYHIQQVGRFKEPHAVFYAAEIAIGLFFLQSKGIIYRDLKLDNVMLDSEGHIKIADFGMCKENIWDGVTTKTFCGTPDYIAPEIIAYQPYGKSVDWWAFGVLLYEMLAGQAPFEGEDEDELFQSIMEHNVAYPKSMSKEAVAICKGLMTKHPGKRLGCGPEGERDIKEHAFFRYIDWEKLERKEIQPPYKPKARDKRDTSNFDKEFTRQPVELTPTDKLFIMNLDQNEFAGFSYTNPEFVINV", "assay": "Selectivity interaction (Upstate Kinase Profiler service (Millipore)) EUB0000056c PRKCB", "settings": "at 1 µM"}, "[7]": {"biological_target": "Receptor tyrosine-protein kinase erbB-2 (Homo sapiens, UniProt P04626)", "sequence (P04626 whole entry)": "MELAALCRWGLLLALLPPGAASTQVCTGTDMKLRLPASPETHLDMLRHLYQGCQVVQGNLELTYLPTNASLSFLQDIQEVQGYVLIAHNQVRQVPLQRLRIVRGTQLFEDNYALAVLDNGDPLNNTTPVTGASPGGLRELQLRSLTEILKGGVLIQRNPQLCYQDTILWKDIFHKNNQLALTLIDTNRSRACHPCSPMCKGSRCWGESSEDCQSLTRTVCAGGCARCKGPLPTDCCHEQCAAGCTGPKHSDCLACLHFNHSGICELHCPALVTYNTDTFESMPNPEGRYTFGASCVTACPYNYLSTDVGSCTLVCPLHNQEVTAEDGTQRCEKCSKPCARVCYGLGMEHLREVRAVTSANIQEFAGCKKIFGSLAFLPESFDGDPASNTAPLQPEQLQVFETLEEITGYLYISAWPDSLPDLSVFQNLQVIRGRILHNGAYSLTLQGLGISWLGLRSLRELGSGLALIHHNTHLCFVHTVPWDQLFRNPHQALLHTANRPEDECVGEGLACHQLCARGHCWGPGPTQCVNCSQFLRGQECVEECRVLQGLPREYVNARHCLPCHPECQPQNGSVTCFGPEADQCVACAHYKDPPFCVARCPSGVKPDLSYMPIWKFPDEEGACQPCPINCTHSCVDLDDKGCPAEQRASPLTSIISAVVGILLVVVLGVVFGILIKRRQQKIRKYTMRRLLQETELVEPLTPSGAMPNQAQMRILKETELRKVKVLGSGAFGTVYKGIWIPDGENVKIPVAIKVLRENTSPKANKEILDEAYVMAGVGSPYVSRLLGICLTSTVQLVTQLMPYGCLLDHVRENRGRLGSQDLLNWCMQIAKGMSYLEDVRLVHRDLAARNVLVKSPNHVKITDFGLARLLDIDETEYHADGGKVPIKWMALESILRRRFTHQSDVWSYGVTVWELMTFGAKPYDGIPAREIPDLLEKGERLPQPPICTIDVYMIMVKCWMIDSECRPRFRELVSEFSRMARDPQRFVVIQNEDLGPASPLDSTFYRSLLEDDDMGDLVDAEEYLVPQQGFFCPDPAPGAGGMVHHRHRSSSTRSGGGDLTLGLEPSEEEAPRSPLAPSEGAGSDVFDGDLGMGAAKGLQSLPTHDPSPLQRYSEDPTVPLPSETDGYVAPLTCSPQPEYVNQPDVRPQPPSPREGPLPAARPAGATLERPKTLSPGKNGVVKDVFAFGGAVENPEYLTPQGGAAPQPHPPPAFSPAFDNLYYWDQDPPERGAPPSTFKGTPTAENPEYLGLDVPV", "assay": "Selectivity interaction (KinomeScan (DiscoverX)) EUB0000045b ERBB2"}, "[8]": {"biological_target": "T2, Serine/threonine-protein kinase TNNI3K (Homo sapiens) (UniProt Q59H18)", "T2 sequence (whole entry)": "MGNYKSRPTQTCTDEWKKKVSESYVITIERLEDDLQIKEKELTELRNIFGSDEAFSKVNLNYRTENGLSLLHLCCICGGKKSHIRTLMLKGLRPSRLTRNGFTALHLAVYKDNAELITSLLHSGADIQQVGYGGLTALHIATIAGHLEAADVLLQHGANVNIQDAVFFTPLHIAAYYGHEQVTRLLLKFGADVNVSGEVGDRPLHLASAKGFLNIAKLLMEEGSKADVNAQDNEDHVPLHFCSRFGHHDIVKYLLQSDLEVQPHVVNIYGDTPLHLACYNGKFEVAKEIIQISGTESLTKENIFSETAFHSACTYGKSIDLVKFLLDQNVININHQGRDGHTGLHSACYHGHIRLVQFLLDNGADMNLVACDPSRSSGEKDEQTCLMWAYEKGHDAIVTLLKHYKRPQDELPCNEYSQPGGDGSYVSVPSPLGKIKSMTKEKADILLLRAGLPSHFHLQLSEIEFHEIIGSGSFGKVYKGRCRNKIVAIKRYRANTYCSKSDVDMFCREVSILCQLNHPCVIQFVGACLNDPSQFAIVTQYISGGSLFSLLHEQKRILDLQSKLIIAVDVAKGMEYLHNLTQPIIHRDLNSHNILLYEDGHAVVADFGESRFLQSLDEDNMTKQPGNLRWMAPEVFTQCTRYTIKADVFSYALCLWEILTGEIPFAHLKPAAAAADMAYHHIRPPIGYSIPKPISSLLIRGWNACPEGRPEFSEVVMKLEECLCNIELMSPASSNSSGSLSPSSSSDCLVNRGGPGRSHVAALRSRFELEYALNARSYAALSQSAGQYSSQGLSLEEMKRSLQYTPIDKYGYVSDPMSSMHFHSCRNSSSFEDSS", "assay": "Selectivity interaction (KinomeScan (DiscoverX)) EUB0001619a TNNI3K", "settings": "at 1 µM"}, "[9]": {"biological_target": "Mitogen-activated protein kinase 1 (Homo sapiens, UniProt P28482)", "sequence (P28482 whole entry)": "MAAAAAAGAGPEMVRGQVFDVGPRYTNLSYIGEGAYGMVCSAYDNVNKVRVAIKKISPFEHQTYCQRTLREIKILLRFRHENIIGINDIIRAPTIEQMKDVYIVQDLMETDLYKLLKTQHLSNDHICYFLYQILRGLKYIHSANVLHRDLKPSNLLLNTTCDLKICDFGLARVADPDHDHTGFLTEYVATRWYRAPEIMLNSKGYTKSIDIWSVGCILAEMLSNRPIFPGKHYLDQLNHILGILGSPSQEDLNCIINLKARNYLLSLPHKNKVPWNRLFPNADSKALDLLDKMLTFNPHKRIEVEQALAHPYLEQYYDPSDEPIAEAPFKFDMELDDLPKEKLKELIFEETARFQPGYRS", "assay": "Selectivity interaction (KinomeScan (DiscoverX)) EUB0000618a MAPK1", "settings": "at 10 µM"}, "[10]": {"test_system": "Hepatocyte growth factor receptor (Homo sapiens), P08581 [M1250T]", "sequence (P08581 whole entry M1250T)": "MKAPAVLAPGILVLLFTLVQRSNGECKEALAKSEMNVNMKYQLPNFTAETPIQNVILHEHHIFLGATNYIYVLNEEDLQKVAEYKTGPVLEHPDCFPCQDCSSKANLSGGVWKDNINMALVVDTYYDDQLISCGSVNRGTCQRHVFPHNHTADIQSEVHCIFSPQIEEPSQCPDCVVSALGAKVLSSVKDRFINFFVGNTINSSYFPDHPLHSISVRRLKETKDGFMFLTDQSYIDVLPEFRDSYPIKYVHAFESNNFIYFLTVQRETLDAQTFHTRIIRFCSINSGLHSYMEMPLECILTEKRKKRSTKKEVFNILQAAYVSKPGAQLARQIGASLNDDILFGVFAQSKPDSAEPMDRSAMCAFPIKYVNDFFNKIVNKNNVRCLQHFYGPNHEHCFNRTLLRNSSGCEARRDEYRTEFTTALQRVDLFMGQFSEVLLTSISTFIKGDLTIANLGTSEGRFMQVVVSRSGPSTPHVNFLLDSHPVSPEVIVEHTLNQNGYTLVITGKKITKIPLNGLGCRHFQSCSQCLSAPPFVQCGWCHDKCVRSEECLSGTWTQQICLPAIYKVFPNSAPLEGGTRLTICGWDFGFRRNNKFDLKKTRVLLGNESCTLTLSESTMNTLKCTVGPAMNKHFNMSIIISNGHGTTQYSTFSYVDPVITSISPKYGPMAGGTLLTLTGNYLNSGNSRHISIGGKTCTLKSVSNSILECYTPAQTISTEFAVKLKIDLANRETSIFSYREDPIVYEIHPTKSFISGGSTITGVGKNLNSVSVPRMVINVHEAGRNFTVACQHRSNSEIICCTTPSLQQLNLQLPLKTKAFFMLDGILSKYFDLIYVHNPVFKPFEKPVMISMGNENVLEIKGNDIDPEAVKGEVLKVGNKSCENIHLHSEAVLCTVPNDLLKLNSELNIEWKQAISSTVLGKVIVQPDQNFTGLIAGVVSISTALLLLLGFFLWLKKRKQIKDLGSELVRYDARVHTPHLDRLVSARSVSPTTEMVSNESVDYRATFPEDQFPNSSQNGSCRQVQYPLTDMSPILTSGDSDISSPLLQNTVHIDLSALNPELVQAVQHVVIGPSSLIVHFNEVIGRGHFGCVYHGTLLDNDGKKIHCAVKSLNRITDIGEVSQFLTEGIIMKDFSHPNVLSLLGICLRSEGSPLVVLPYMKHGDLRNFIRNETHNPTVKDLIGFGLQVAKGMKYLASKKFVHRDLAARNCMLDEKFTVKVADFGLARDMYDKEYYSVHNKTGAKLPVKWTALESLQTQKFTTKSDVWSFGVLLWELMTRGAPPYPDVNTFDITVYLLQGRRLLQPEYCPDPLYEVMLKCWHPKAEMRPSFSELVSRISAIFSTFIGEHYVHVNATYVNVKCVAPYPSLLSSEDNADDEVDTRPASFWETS", "assay": "(§1) Selectivity interaction (KinomeScan (DiscoverX)) EUB0000666a MET", "settings": "at 10 µM"}, "[11]": {"test_system": "Hepatocyte growth factor receptor (Homo sapiens), P08581 [Y1235D]", "assay": "as §1", "settings": "at 10 µM"}}}
{"compound": "CC[C@@H]1[C@H](F)C(=O)N[C@@H]1COc1nccc2cc(C(N)=O)c(OC)cc12", "note": "[ZIMLOVISERTIB]", "values": [{"measurement": "% of inhibition", "setting": "[1]", "value": 6.43, "unit": "%"}]}
{"compound": "CN(C)CC#Cc1ccc2[nH]c3c(c2c1)-c1nc(N)ncc1CCC3", "values": [{"measurement": "% of control", "setting": "[2]", "value": 96, "unit": "%"}]}
{"compound": "CCC(=O)N1CC[C@H](Nc2ncnc3c2CN(c2cnc(OC)c(C(F)(F)F)c2)CC3)C1", "note": "[LENIOLISIB]", "values": [{"measurement": "IC50", "setting": "Insulin receptor", "value": "> 10", "unit": "µM"}]}
{"compound": "CN1Cc2nccc(-c3cn(C)nc3-c3ccc(F)cc3)c2C1=O", "values": [{"measurement": "% of inhibition", "setting": "[3]", "value": 1, "unit": "%"}]}
{"compound": "COCC(=O)NC/C=C/c1ccc2ncnc(Nc3ccc(Oc4ccc(C)nc4)c(C)c3)c2c1", "note": "[CP-724714]", "values": [{"measurement": "% of control", "setting": "[4]", "value": 100, "unit": "%"}]}
{"compound": "CN(C)CCCOc1ccc(-c2cc(NCCCn3cccn3)nc(S(C)(=O)=O)n2)cc1", "values": [{"measurement": "dTM", "setting": "[5]", "value": "< 2", "unit": "K"}]}
{"compound": "Cc1ccc(-c2ccc3c(ccc4sc5c(c43)NC[C@@H](C)NC5=O)n2)cn1", "values": [{"measurement": "% of inhibition", "setting": "[6]", "value": 13, "unit": "%"}]}
{"compound": "C=CC(=O)Nc1cc(-n2c(=O)ccc3cnc4ccc(-c5ccc(NS(C)(=O)=O)cc5)cc4c32)ccc1C", "values": [{"measurement": "% of control", "setting": "[7]; at 1 µM", "value": 90, "unit": "%"}, {"measurement": "% of control", "setting": "[7]; at 10 µM", "value": 26, "unit": "%"}]}
{"compound": "N#Cc1cccc(-c2c[nH]c3ncnc(N4CCOCC4)c23)c1", "values": [{"measurement": "% of control", "setting": "[8]", "value": 74, "unit": "%"}]}
{"compound": "O[C@H]1CC[C@H](Nc2ncc3nc(Nc4c(F)cc(F)cc4F)n([C@H]4CCOC4)c3n2)CC1", "values": [{"measurement": "% of control", "setting": "[9]", "value": 15, "unit": "%"}]}
{"compound": "O=C(NOC[C@H](O)CO)c1ccc(F)c(F)c1Nc1ccc(I)cc1F", "values": [{"measurement": "% of control", "setting": "[10]", "value": 92, "unit": "%"}, {"measurement": "% of control", "setting": "[11]", "value": 100, "unit": "%"}]}
